Earlier results on four molecules are cited in US12252709B2, “Culture media for culturing pluripotent stem cells in suspension” (Accellta Ltd., priority 2016, dated 2025).

The subject of data set [1] is hESCs. The settings on record: for background differentiation: MATRIGEL matrix.
The test system of data set [2] is hESCs. As to conditions: Matrigel matrix, seven days (Sato et al, 2004).

Where two headings read alike, the source gives them in different places.

For “bFGF: basic fibroblast growth factor, medium supplement”, the background differentiation with hESCs [1] (serum replacement, 40 ng/ml bFGF [Xu et al, 2005b]) is reported as 28%.
As to `O=C1Nc2cc(Br)ccc2/C1=C1/Nc2ccccc2/C1=N\O` [BIO, 6-bromoindirubin-3′-oxime], the “maintenance of hESC properties” value with hESCs [2] is given as “maintained hESC properties”.

B1: Flt-3 ligand: protein factor added to bFGF medium (protein, UniProt P49771 27-235, looked up)
Fms-related tyrosine kinase 3 …: TQDCSFQHSPISSDFAVKIRELSDYLLQDYPVTVASNLQDEELCGGLWRLVLAQRWMERLKTVAGSKMQGLLERVNTEIHFVTKCAFQPPPSCLRFVQTNISRLLQETSEQLVALKPWITRQNFSRCLELQCQPDSSTLPPPWSPRPLEATAPTAPQPPLLLLLLLPVGLLLLAAAWCLHWQRTRRRTPRPGEQVPPVPSPQDLLLVEH
Turning to B1, the differentiation in the data set on hESCs [1] (as before with 75 ng/ml of Flt-3 ligand added) is 20%.

B2: Noggin: protein factor used with 40 ng/ml bFGF (protein, UniProt Q13253 28-232, looked up)
Noggin: QHYLHIRPAPSDNLPLVDLIEHPDPIFDPKEKDLNETLLRSLLGGHYDPGFMATSPPEDRPGGGGGAAGGAEDLAELDQLLRQRPSGAMPSEIKGLEFSEGLAQGKKQRLSKKLRRKLQMWLWSQTFCPVLYAWNDLGSRFWPRYVKVGSCFSKRSCSVPEGMVCKPSKSVHLTVLRWRCQRRGGQRCGWIPIQYPIISECKCSC
As to B2, the background differentiation in the data set on hESCs [1] (40 ng/ml bFGF and 0.5 μg/ml Noggin [Xu et al, 2005]) is 10%.
